Drawing on patent publication US4808584A, “Quinolinecarboxylic acid derivatives and antibacterial agent containing the same” (Kanebo, Ltd., priority 1987, dated 1989), this text covers MIC for 3 compounds.

Common to all, as to assay: Minimum inhibitory concentration (MIC)
Holding throughout (type): cell-based

For assay [1], the system named is Enterobacter aerogenes ATCC 13048. To be noted: Klebsiella aerogenes, ATCC13048, Enterobacter aerogenes ATCC 13048, Gram -. The method, then: (§1) The compounds of the present invention (A, C, E, F, G, H and I) and ofloxacin as control were dissolved in 0.1N aqueous potassium hydroxide to prepare a solution of 5000 μg/ml in concentration. The compounds of the present invention (B, D and J) were dissolved in sterilized distilled water to prepare a solution of 5000 μg/ml in concentration. Each solution was diluted with sterilized distilled water to prepare a standard solution with a concentration of each test compound: 1000 μg/ml. The test was carried out by a method approved by Japan Society of Chemotherapy [cf. Chemotherapy, 29, 76-79 (1981)(TOKYO)].

Assay [2] has as its system Klebsiella pneumoniae PCI 602. The following applies: Klebsiella pneumoniae. The method, then: as §1
The subject of assay [3] is Citrobacter freundii NIHJ 10018-68. The following applies: NIHJ10018; Citrobacter freundii NIHJ 10018-68, Gram -. The protocol:
as §1

Assay [4] relates to Salmonella typhimurium IID 971. The following applies: Salmonella enterica, read-out: Minimum inhibitory concentration (MIC). The method, then: as §1
Assay [5] deals with Pseudomonas aeruginosa NCTC 10490. To be noted: Pseudomonas aeruginosa, NCTC10490, Pseudomonas aeruginosa NCTC 10490, Gram -. The method, then:
as §1

Assay [6] has as its system Escherichia coli NIHJ JC-2. To be noted: NIHJJC2; Escherichia coli NIHJ JC-2, Gram -. The protocol:
as §1

Assay [7] deals with Serratia marcescens IAM 1184. The following applies: Serratia marcescens, IAM1184, Serratia marcescens IAM 1184, Gram -. The protocol: as §1
Assay [8] deals with Acinetobacter calcoaceticus AC 54. To be noted: Acinetobacter calcoaceticus, AC54, Acinetobacter calcoaceticus AC 54, Gram -. The protocol:
as §1

In assay [9] the test system is Morganella morganii IFO 3848. To be noted: IFO3848; Morganella morganii IFO 3848, Gram -. The method, then: as §1
Assay [10] has as its system Proteus mirabilis IFO 3849. To be noted: IFO3849; Proteus mirabilis IFO 3849, Gram -. The protocol: as §1
The next assay has as its system Proteus vulgaris OX-19. The following applies: OX19; Proteus vulgaris OX-19, Gram -; read-out: Minimum inhibitory concentration (MIC). The method, then: as §1
Assay [11] relates to Micrococcus luteus ATCC 9341. The following applies: ATCC9341; Micrococcus luteus ATCC 9341, Gram +. The protocol: as §1
In assay [12] the test system is Pseudomonas aeruginosa E-2. To be noted: E2; Pseudomonas aeruginosa E-2, Gram -. The method, then: as §1
In another assay the test system is Enterobacter cloacae 963. The following applies: Enterobacter cloacae 963, Gram -. The protocol: as §1
The test system of assay [13] is Bacillus subtilis ATCC 6633. To be noted: ATCC6633; Bacillus subtilis ATCC 6633, Gram +; read-out: Minimum inhibitory concentration (MIC). The method, then: as §1
The test system of the next assay is Escherichia coli KC-14. The following applies: KC14; Escherichia coli KC-14, Gram -. The method, then: as §1
Assay [14] has as its system Staphylococcus aureus FDA 209P JC-1. To be noted: FDA209P; Staphylococcus aureus FDA 209P JC-1, Gram +. The method, then: as §1
In a further assay the test system is Shigella sonnei EW-33. To be noted: EW33; Shigella sonnei EW-33, Gram -. The method, then: as §1
Assay [15] has as its system Pseudomonas aeruginosa IFO 3445. The following applies: Pseudomonas aeruginosa, IFO3445, Pseudomonas aeruginosa IFO 3445, Gram -. The protocol:
as §1

For assay [16], the system named is Streptococcus faecalis IID 682. The following applies: Enterococcus faecalis, IID682, Streptococcus faecalis IID 682, Gram +. The protocol:
as §1

In assay [17] the test system is Staphylococcus epidermidis IAM-1296. To be noted: Staphylococcus epidermidis, IAM1296, Staphylococcus epidermidis IAM-1296, Gram +. The protocol: as §1
For assay [18], the system named is Staphylococcus aureus IID 803. To be noted: IID803; Staphylococcus aureus IID 803, Gram +; read-out: Minimum inhibitory concentration (MIC). The protocol: as §1
[19] abbreviates: PCI602, Klebsiella pneumoniae PCI 602, Gram -, read-out: Minimum inhibitory concentration (MIC).
Where [20] appears, read: Salmonella typhimurium IID 971, Gram -.

Converted amounts (≈) assume the structure as drawn. Structures can show the parent of a compound that is named as a salt. Where two headings read alike, the source gives them in different places.

Regarding `O=C(O)c1c(=O)c2cc(F)c(N3CCC(O)C3)c3c2n2c(csc12)CO3` (stereo not drawn) [Compound (H), 9,1-Epoxymethano-7-fluoro-8-(3-hydroxy-1-pyrrolidinyl)-5-oxo-5H-thiazolo[3,2-a]quinoline-4-carboxylic acid], the MIC is 0.1 µg/mL (≈ 0.266 µM) in [1]; 0.006 µg/mL (≈ 0.0159 µM) in assay [2] (setting [19]); 0.39 µg/mL (≈ 1.04 µM) in [3]; 0.0125 µg/mL (≈ 0.0332 µM) in [4] (setting [20]); 0.39 µg/mL (≈ 1.04 µM) in assay [5]; 0.05 µg/mL (≈ 0.133 µM) in assay [6]. The MIC in assay [7] is 0.39 µg/mL (≈ 1.04 µM); in assay [8], 0.1 µg/mL (≈ 0.266 µM); in assay [9], 0.1 µg/mL (≈ 0.266 µM); in assay [10], 0.1 µg/mL (≈ 0.266 µM); in the assay with Proteus vulgaris OX-19, 0.0125 µg/mL (≈ 0.0332 µM); in assay [11] it was 0.78 µg/mL. In addition, the MIC in [12] worked out at 0.39 µg/mL (≈ 1.04 µM); with Enterobacter cloacae 963 it was 0.1 µg/mL (≈ 0.266 µM); in assay [13] it was 0.006 µg/mL (≈ 0.0159 µM); against Escherichia coli KC-14, 0.05 µg/mL (≈ 0.133 µM); in assay [14], 0.025 µg/mL; against Shigella sonnei EW-33, 0.05 µg/mL (≈ 0.133 µM). For the same compound, the MIC in assay [15] was found to be 0.39 µg/mL (≈ 1.04 µM); in assay [16] it was 0.2 µg/mL; in assay [17], 0.2 µg/mL; in [18] it was 0.025 µg/mL (≈ 0.0664 µM).
With `NC1CCN(c2c(F)cc3c(=O)c(C(=O)O)c4scc5n4c3c2OC5)C1` (stereo not drawn) [Compound (I), 9,1-Epoxymethano-7-fluoro-8-(3-amino-1-pyrrolidinyl)-5-oxo-5H-thiazolo[3,2-a]quinoline-4-carboxylic acid], the MIC stood at 0.1 µg/mL (≈ 0.266 µM) in [1]; 0.05 µg/mL (≈ 0.133 µM) in [2] (PCI602, read-out: Minimum inhibitory concentration (MIC)); 0.2 µg/mL (≈ 0.533 µM) in assay [3]; 0.1 µg/mL (≈ 0.266 µM) in assay [4] (setting [20]); 0.39 µg/mL (≈ 1.04 µM) in assay [5]; 0.2 µg/mL (≈ 0.533 µM) in [6]. Further, the MIC in assay [7] was 0.78 µg/mL (≈ 2.08 µM); in [8], 0.78 µg/mL (≈ 2.08 µM); in [9] it was 0.2 µg/mL (≈ 0.533 µM); in [10], 0.39 µg/mL (≈ 1.04 µM); in the assay on Proteus vulgaris OX-19, 0.2 µg/mL (≈ 0.533 µM); in [11] it was 1.56 µg/mL. The MIC turned out to be 0.78 µg/mL (≈ 2.08 µM) in assay [12]; 0.2 µg/mL (≈ 0.533 µM) in the assay with Enterobacter cloacae 963; 0.2 µg/mL (≈ 0.533 µM) in [13]; 0.1 µg/mL (≈ 0.266 µM) with Escherichia coli KC-14; 0.2 µg/mL in assay [14]; 0.1 µg/mL (≈ 0.266 µM) in the assay on Shigella sonnei EW-33. Moreover, the MIC in [15] came to 0.78 µg/mL (≈ 2.08 µM); in [16], 0.78 µg/mL; in [17], 0.78 µg/mL; in [18], 0.39 µg/mL (≈ 1.04 µM).
On to `CCN1CCN(c2c(F)cc3c(=O)c(C(=O)O)c4scc5n4c3c2OC5)CC1` [Compound (J), 9,1-Epoxymethano-7-fluoro-8-(4-ethyl-1-piperazinyl)-5-oxo-5H-thiazolo[3,2-a]quinoline-4-carboxylic acid.hydrochloride.1/2hydrate], for which the MIC was determined as 0.1 µg/mL in [1]; 0.025 µg/mL in assay [2] (setting [19]); 0.39 µg/mL in [3]; 0.05 µg/mL in [4]; 0.78 µg/mL in [5]; 0.1 µg/mL in assay [6]. The MIC in assay [7] is 0.39 µg/mL; in assay [8] it was 0.1 µg/mL; in assay [9], 0.1 µg/mL; in assay [10], 0.39 µg/mL; in the assay on Proteus vulgaris OX-19 it was 0.05 µg/mL; in assay [11], 3.13 µg/mL. In addition, the MIC in [12] worked out at 1.56 µg/mL; against Enterobacter cloacae 963 it was 0.1 µg/mL; in assay [13], 0.1 µg/mL; in the assay on Escherichia coli KC-14, 0.1 µg/mL; in assay [14], 0.2 µg/mL; in the assay on Shigella sonnei EW-33, 0.1 µg/mL. Besides, the MIC in assay [15] is 3.13 µg/mL; in assay [16], 0.78 µg/mL; in assay [17], 0.39 µg/mL; in [18], 0.2 µg/mL.
